Experimental data from ChEMBL document CHEMBL1132524, “Synthesis and evaluation of analogs of Efavirenz (SUSTIVA) as HIV-1 reverse transcriptase inhibitors” (Bioorg Med Chem Lett, 1999).

What was measured:
[1] = target: Human immunodeficiency virus type 1 reverse transcriptase (Human immunodeficiency virus 1, UniProt Q72547); assay: Inhibitory activity against HIV-1 reverse transcriptase enzyme
[2] = tested on: Human immunodeficiency virus 1

| Compound | IC50 [1] [nM] | IC90 [2] [nM] |
| --- | --- | --- |
| O=C1Nc2ccc(-c3ccccc3)cc2C(C#CC2CC2)(C(F)(F)F)O1 (stereo not given) | > 2000 | 249 |
| O=C1Nc2c(F)ccc(F)c2C(C#CC2CC2)(C(F)(F)F)O1 (stereo not given) | 796 | 18 |
| O=C1Nc2ccccc2C(C#CC2CC2)(C(F)(F)F)O1 (stereo not given) | 478 | 10.3 |
| CN(C)c1ccc2c(c1)C(C#CC1CC1)(C(F)(F)F)OC(=O)N2 (stereo not given) | 816 | 8.33 |
| O=C1Nc2c(F)cc(Cl)cc2C(C#CC2CC2)(C(F)(F)F)O1 (stereo not given) | – | 7.19 |
| O=C1Nc2ccc(F)cc2C(C#CC2CC2)(C(F)(F)F)O1 (stereo not given) | 190 | 7.35 |
| CC(C)c1ccc2c(c1)C(C#CC1CC1)(C(F)(F)F)OC(=O)N2 (stereo not given) | 1960 | 27.8 |
| O=C1Nc2c(cc(F)c(F)c2F)C(C#CC2CC2)(C(F)(F)F)O1 (stereo not given) | > 2000 | 418 |
| O=C1Nc2c(Cl)cc(Cl)cc2C(C#CC2CC2)(C(F)(F)F)O1 (stereo not given) | > 2000 | 28.6 |
| Cc1ccc2c(c1)C(C#CC1CC1)(C(F)(F)F)OC(=O)N2 (stereo not given) | 133 | 7.11 |
| O=C1Nc2ccc(OC(F)(F)F)cc2C(C#CC2CC2)(C(F)(F)F)O1 (stereo not given) | 1250 | 18.9 |
| O=C1Nc2c(F)cc(F)c(F)c2C(C#CC2CC2)(C(F)(F)F)O1 (stereo not given) | 800 | 14 |
| O=C1Nc2cc(F)c(F)c(F)c2C(C#CC2CC2)(C(F)(F)F)O1 (stereo not given) | 442 | 19.6 |
| O=C1Nc2ccc(F)c(F)c2C(C#CC2CC2)(C(F)(F)F)O1 (stereo not given) | 84 | – |
| COc1ccc2c(c1)C(C#CC1CC1)(C(F)(F)F)OC(=O)N2 (stereo not given) | 131 | 2 |
| O=C1Nc2cc3ccccc3cc2C(C#CC2CC2)(C(F)(F)F)O1 (stereo not given) | 1910 | 26.9 |
